Test results: US10047076B2, “Halogen-substituted compounds” (BAYER CROPSCIENCE AKTIENGESELLSCHAFT, priority 2014, dated 2018)

Columns and labels:
[1] = tested on: Tetranychus urticae; test: Tetranychus urticae spray test, OP-resistant (bean leaf discs); type: in vivo; conditions: 100 g/ha, after 6 days
Experimental: (§1) Solvent: 78.0 parts by weight of acetone
(§2) After 6 days, the efficacy in % is determined.

[2] = tested on: Ctenocephalides felis; test: Ctenocephalides felis oral test; type: in vivo; conditions: 100 ppm in citrated cattle blood, after 2 days
Source text: (§3) Solvent: dimethyl sulphoxide
Dilution with citrated cattle blood gives the desired concentration.
About 20 unfed adult cat fleas (Ctenocephalides felis) are placed into a chamber which is closed at the top and bottom with gauze. A metal cylinder whose bottom end is closed with parafilm is placed onto the chamber. The cylinder contains the blood/active compound preparation, which can be imbibed by the fleas through the parafilm membrane.

[3] = tested on: Musca domestica; test: Musca domestica test; type: in vivo; conditions: 100 ppm, adult houseflies, after 2 days
Source text: as §3
Vessels containing a sponge treated with sugar solution and the active compound preparation of the desired concentration are populated with 10 adult houseflies (Musca domestica).

[4] = tested on: Phaedon cochleariae; test: Phaedon cochleariae spray test; conditions: 100 g/ha, larvae on Chinese cabbage leaf discs, after 7 days
[5] = tested on: cattle ticks (Boophilus microplus) Parkhurst strain, SP-resistant; test: Boophilus microplus dip test; type: in vivo; conditions: 100 ppm, engorged adult female ticks, after 7 days
Experimental: Test animals: cattle ticks (Boophilus microplus) Parkhurst strain, SP-resistant
as §3
10 mg of active compound are dissolved in 0.5 ml of dimethyl sulphoxide. For the purpose of producing a suitable formulation, the active compound solution is diluted with water to the concentration desired in each case.
This active compound preparation is pipetted into tubes. 8-10 engorged adult female cattle ticks (Boophilus microplus) are transferred into a further tube with holes. The tube is immersed into the active compound preparation, and all the ticks are completely wetted. After the liquid has run out, the ticks are transferred on filter discs into plastic dishes and stored in a climate-controlled room.
(§4) Efficacy is assessed after 7 days by laying of fertile eggs. Eggs which are not visibly fertile are stored in a climate-controlled cabinet until the larvae hatch after about 42 days. An efficacy of 100% means that none of the ticks has laid any fertile eggs; 0% means that all the eggs are fertile.

[6] = tested on: Amblyomma hebraeum; test: Amblyomma hebaraeum test (AMBYHE), tick nymphs immersion; type: in vivo; conditions: 100 ppm, after 42 days
Experimental: as §3
To produce a suitable active compound formulation, 10 mg of active compound are mixed with 0.5 ml of dimethyl sulphoxide, and the concentrate is diluted with water to the desired concentration.
Tick nymphs (Amblyomma hebraeum) are placed into perforated plastic beakers and immersed in the desired concentration for one minute. The ticks are transferred on filter paper into a Petri dish and stored in a climate-controlled cabinet.

[7] = log P determination by HPLC on reversed-phase column (C18), EEC Directive 79/831 Annex V.A8, acidic (formic acid); type: physicochemical; conditions: HPLC method a), acetonitrile/water with formic acid
Experimental: ^1 The stated mass is the peak of the isotope pattern of the [M+H]^+ ion of the highest intensity; if the [M-H]^- ion was detected, the stated mass is identified with ^2. ^2 The stated mass is the peak of the isotope pattern of the [M-H]^- ion of the highest intensity. ^a) Note regarding the determination of the log P values and mass detection: The determination of the given log P values was carried out in accordance with EEC Directive 79/831 Annex V.A8 by HPLC (High Performance Liquid Chromatography) on a reversed-phase column (C18). […] Mass detection is effected by means of an […] system. ^b) Note regarding the determination of the retention time and mass detection: The stated retention times were determined on a reversed-phase column (C18) Shimadzu LCMS 2020; 50*3.0 Shimadzu shim-pack XR-ODS 2.2 micron; mobile phase A: water (0.05% TFA); mobile phase B: acetonitrile; linear gradient from 5% acetonitrile to 95% acetonitrile in 6.00 min, then 95% acetonitrile for a further 1.1 min; oven temperature 40° C.; flow rate: 1.0 ml/min. ^c) Note regarding the determination of the retention time and mass detection: Instrument: Waters ACQUITY SQD UPLC system; column. Waters Acquity UPLC HSS T3 1.8μ 50×1 mm; mobile phase A: 1 l of water+0.25 ml of 99% strength formic acid, mobile phase B: 1 l of acetonitrile+0.25 ml of 99% strength formic acid; gradient: 0.0 min 90% A→1.2 min 5% A→2.0 min 5% A oven: 50° C.; flow rate: 0.40 ml/min; UV detection: 208-400 nm. ^d) Note regarding the determination of the retention time and mass detection: […] The determination of the given log P values was carried out in accordance with EEC Directive 79/831 Annex V.A8 by HPLC (High Performance Liquid Chromatography) on a reversed-phase column (C18). […] Mass detection is effected by means of an […] system.

[8] = tested on: Boophilus microplus; test: Boophilus microplus injection test; type: in vivo; conditions: 20 μg/animal, engorged adult female ticks, after 7 days
Experimental: as §3
1 μl of the active compound solution is injected into the abdomen of 5 engorged adult female cattle ticks (Boophilus microplus). The animals are transferred into dishes and kept in a climate-controlled room.
as §4

[9] = tested on: Spodoptera frugiperda; test: Spodoptera frugiperda spray test; type: in vivo; conditions: 100 g/ha, caterpillars on maize leaf discs, after 7 days
Source text: as §1

[10] = tested on: Ctenocephalides felis; test: Ctenocephalides felis in vitro contact test with adult cat fleas; type: in vivo; conditions: application rate 5 μg/cm^2 (500 g/ha), after 48 h, adult cat fleas dead or moribund
Experimental: (§5) For the coating of the test tubes, 9 mg of active compound are first dissolved in 1 ml of acetone p.a. and then diluted to the desired concentration with acetone p.a. 250 μl of the solution are distributed homogeneously on the inner walls and the base of a 25 ml test tube by turning and rocking on an orbital shaker (rocking rotation at 30 rpm for 2 h). With 900 ppm active compound solution and internal surface 44.7 cm^2, given homogeneous distribution, an area-based dose of 5 μg/cm^2 is achieved.
After the solvent has evaporated off, the tubes are populated with 5-10 adult cat fleas (Ctenocephalides felis), sealed with a perforated plastic lid and incubated in a horizontal position at room temperature and ambient humidity. After 48 h, efficacy is determined. To this end, the test tubes are stood upright and the fleas are knocked to the base of the tube. Fleas which remain motionless at the base or move in an uncoordinated manner are considered to be dead or moribund.
100% efficacy means that all the fleas were dead or moribund. 0% efficacy means that no fleas were harmed.

[11] = tested on: Lucilia cuprina; test: Lucilia cuprina test; type: in vivo; conditions: 100 ppm, L1 larvae, after 2 days
Experimental: as §3
About 20 L1 larvae of the Australian sheep blowfly (Lucilia cuprina) are transferred into a test vessel containing minced horsemeat and the active compound preparation of the desired concentration.
After 2 days, the kill in % is determined.

[12] = tested on: Rhipicephalus sanguineus; test: Rhipicephalus sanguineus in vitro contact test with adult brown dog ticks; type: in vivo; conditions: application rate 5 μg/cm^2 (500 g/ha), after 48 h, adult ticks dead or moribund
Experimental: as §5
After the solvent has evaporated off, the tubes are populated with 5-10 adult dog ticks (Rhipicephalus sanguineus), sealed with a perforated plastic lid and incubated in a horizontal position in the dark at room temperature and ambient humidity. After 48 h, efficacy is determined. To this end, the ticks are knocked to the floor of the tube and incubated on a hotplate at 45-50° C. for not more than 5 min. Ticks which remain motionless on the floor or move in such an uncoordinated manner that they are unable to deliberately avoid the heat by climbing upwards are considered to be dead or moribund.
An efficacy of 100% means that all the ticks were dead or moribund. 0% efficacy means that none of the ticks had been harmed.

[13] = tested on: Myzus persicae; test: Myzus persicae spray test; type: in vivo; conditions: 100 g/ha, Chinese cabbage leaf discs, after 6 days
Experimental: Solvent: 78 parts by weight of acetone
as §2

[14] = tested on: Tetranychus urticae; test: Tetranychus urticae spray test, OP-resistant (bean plants); type: in vivo; conditions: 20 ppm, after 7 days

chromatographic logP [7] | SMILES | efficacy [1] | efficacy (kill in %) [2] | efficacy (kill in %) [3] | efficacy [4] | efficacy (laying of fertile eggs) [5] | efficacy (kill in %) [6] | efficacy (laying of fertile eggs) [8] | efficacy [9] | efficacy [10] | efficacy (kill in %) [11] | efficacy [12] | logP [7] | efficacy [13] | efficacy [14]
4.02 | Cn1nc(C(F)(F)C(F)(F)F)c(C(F)(F)F)c1-c1coc(-c2ccc(Cl)c(C(=O)NC3(C#N)CC3)c2)c1 [Iac-1, 2-chloro-N-(1-cyanocyclopropyl)-5-{4-[1-methyl-3-(pentafluoroethyl)-4-(trifluoromethyl)-1H-pyrazol-5-yl]-2-furyl}benzamide] | 100% | 100% | 100% | 100% | 100% | 100% | 100% | 100% | 100% | 100% |  |  |  | 
 | Cn1nc(C(F)(F)C(F)(F)F)c(C(F)(F)F)c1-c1csc(-c2ccc(Cl)c(C(=O)NC3CC3)c2)c1 [Iaf-1] | 100% | 100% |  | 100% | 100% | 100% | 100% | 100% | 100% | 100% | 100% | 4.31 | 90% | 
4.06 | Cn1nc(C(F)(F)C(F)(F)F)c(C(F)(F)F)c1-c1cc(-c2ccc(Cl)c(C(=O)NC3CC3)c2)no1 [Iap-1, 2-chloro-N-cyclopropyl-5-{5-[1-methyl-3-(pentafluoroethyl)-4-(trifluoromethyl)-1H-pyrazol-5-yl]-1,2-oxazol-3-yl}benzamide] |  | 100% | 100% | 100% | 100% | 100% | 100% | 100% | 100% | 100% | 100% |  |  | 100%
